Test results as given in patent US7960438B2, “Use of agomelatine in obtaining medicaments intended for the treatment of generalized anxiety disorder” (Les Laboratoires Servier, priority 2006, dated 2011).

Tested on: patients suffering from Generalized Anxiety Disorder
Experiment: Clinical study versus placebo in Generalized Anxiety Disorder
Type: in vivo
Description: A clinical study versus placebo has been carried out in 121 patients. Those 121 patients have been randomised in two parallel groups and received either agomelatine at 25 mg per day or placebo.
After treatment for two weeks, and in case of low response, doses have been increased to 50 mg per day in double blind study for patients receiving agomelatine with a IVRS system (Interactive Voice Response System). Treatment for 12 weeks was carried out.
The efficacy has been appreciated with evaluation tools recommended by the health authorities, such as the Hamilton Anxiety Scale (Hamilton M., J. Neurol. Neurosurg. Psychiat., 1959, 23, 56-62), or the Sheehan Disability Scale (International Clinical Psychopharmacology, 1996, 11, 89-95). The acceptability profile has also been evaluated.

## COc1ccc2cccc(CCNC(C)=O)c2c1 [agomelatine, N-[2-(7-methoxy-1-naphthyl)ethyl]acetamide]
25 mg per day (up to 50 mg per day), 12 weeks
  acceptability profile for the patients: good acceptability profile
121 patients, 25 mg per day (increased to 50 mg per day in case of low response after two weeks), 12 weeks, p=0.040
  difference between agomelatine group and placebo group on the total score of the Hamilton Anxiety Scale: −3.28
After stopping 12 weeks treatment
  discontinuation syndrome when the treatment was stopped: absence of the discontinuation syndrome
